Earlier results, collected in patent US20130005740A1, “PROCESS FOR PREPARATION OF OVER-THE-COUNTER GELATIN OR PECTIN-BASED DRUG DELIVERY” (7267207 CANADA LIMITED CORPORATION, priority 2009, published 2013).

Settings: unlike aspirin

Question: Which stability in solution does the source give for `CC(C)Cc1ccc(C(C)C(=O)O)cc1` (stereo not shown) [ibuprofen] here?
Answer: stable in solution
